Results on 21 compounds are retold here after ChEMBL document CHEMBL1146925 (Bioorg Med Chem Lett, 2006).

In series [1] the target is D(2) dopamine receptor (Homo sapiens, UniProt P14416). The series can be described thus: Binding affinity to cloned human dopamine D2 receptor.
In series [2] the target is D(3) dopamine receptor (Homo sapiens, UniProt P35462). Briefly: Binding affinity to cloned human dopamine D3 receptor.
Series [3] is described as follows: Oral bioavailability in rat at 2 mg/kg, iv and 10 mg/kg, po. The class given is ADME, organism-based. As to conditions: in vivo.
Series [4] deals with Liver microsomes. The series can be described thus: Metabolic stability in human liver microsomes. The series is classed as ADME, Microsome.
The nature of series [5]: Brain to plasma ratio in rat at 2 mg/kg, iv and 10 mg/kg, po.
The subject of series [6] is Liver microsomes. Briefly: Metabolic stability in rat liver microsomes. The class given is ADME, Microsome.
The nature of series [7]: Permeability across Caco-2 cell membrane at pH 7.2. The class given is ADME, cell-based. As to conditions: human, Caco-2, pH 7.2; read-out: permeability.
For series [8], the species on record is Canis familiaris. Briefly: Metabolic stability in dog liver microsomes. The series is classed as ADME, Canis lupus familiaris.

Each structure is given as a SMILES string.

Sequence of D(2) dopamine receptor (P14416 whole entry): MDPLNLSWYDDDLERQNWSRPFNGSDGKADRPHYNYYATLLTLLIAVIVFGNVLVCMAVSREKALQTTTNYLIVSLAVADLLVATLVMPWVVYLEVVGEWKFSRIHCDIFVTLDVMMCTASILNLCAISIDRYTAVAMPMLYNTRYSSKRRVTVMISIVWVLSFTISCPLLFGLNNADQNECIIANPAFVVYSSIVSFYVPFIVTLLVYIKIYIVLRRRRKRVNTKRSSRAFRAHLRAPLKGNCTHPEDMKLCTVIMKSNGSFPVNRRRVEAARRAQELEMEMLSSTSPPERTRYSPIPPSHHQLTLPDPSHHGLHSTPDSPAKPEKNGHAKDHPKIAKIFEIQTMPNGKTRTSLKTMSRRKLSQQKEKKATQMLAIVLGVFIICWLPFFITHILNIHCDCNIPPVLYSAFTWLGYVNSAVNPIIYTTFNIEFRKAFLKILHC
Sequence of D(3) dopamine receptor (P35462 whole entry): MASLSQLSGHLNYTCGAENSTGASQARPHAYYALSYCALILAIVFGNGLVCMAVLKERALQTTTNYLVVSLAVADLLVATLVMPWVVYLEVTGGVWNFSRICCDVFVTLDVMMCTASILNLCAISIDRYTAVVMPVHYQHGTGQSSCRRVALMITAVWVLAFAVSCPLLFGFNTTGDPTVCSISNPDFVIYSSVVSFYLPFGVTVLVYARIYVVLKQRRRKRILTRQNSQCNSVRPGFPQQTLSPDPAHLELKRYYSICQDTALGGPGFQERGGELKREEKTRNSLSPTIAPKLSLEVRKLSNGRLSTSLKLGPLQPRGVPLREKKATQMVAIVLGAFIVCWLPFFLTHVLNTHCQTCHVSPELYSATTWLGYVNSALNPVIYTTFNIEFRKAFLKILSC

For the compound `CC(C)(C)c1nc(N2CCN(CCCCn3ccc(O)cc3=O)CC2)cc(C(F)(F)F)n1`, the results for the Ki in series [1] and in series [2] were 0.0255 µM and 0.0011 µM, respectively.

As for `CC(C)(C)c1nc(N2CCN(CCCCNC(=O)NCC3CCCCC3)CC2)cc(C(F)(F)F)n1`, the figures for the inhibition constant Ki in series [1] and in series [2] were 0.159 µM and 0.0067 µM, respectively.

Regarding `CCN(CC)C(=O)NCCCCN1CCN(c2cc(C(F)(F)F)nc(C(C)(C)C)n2)CC1`, the Ki in series [1] came to 0.0173 µM; in series [2], 0.0009 µM.

Consider `Cc1cccn(CCCCN2CCN(c3cc(C(F)(F)F)nc(C(C)(C)C)n3)CC2)c1=O`, for which the Ki in series [1] came to 0.171 µM.

`Cc1cccc(=O)n1CCCCN1CCN(c2cc(C(F)(F)F)nc(C(C)(C)C)n2)CC1`: the Ki was 0.195 µM in series [1] and 0.0121 µM in series [2].

With `CC(C)(C)c1nc(N2CCN(CCCCn3cc(Cl)ccc3=O)CC2)cc(C(F)(F)F)n1`, the Ki came to 0.128 µM in series [1] and 0.0322 µM in series [2].

As for `CC(C)(C)NC(=O)NCCCCN1CCN(c2cc(C(F)(F)F)nc(C(C)(C)C)n2)CC1`, the Ki in series [1] stood at 0.0658 µM; in series [2], 0.004 µM.

As for `CC(C)(C)c1nc(N2CCN(CCCCNC(=O)Nc3ccccc3)CC2)cc(C(F)(F)F)n1`, the Ki worked out at 0.0591 µM in series [1] and 0.0032 µM in series [2].

`CC(C)(C)c1nc(N2CCN(CCCCn3cc(C(F)(F)F)ccc3=O)CC2)cc(C(F)(F)F)n1`: the Ki in series [1] was determined as 0.399 µM; in series [2] it was 0.0357 µM.

Take `CC(C)(C)c1nc(N2CCN(CCCCn3ccc(C(F)(F)F)cc3=O)CC2)cc(C(F)(F)F)n1`: the Ki in series [1] amounted to 0.231 µM; in series [2], 0.0114 µM.

On to `CC(C)(C)c1nc(N2CCN(CCCCn3ccc(C(F)(F)F)nc3=O)CC2)cc(C(F)(F)F)n1`, for which the Ki in series [1] is 0.936 µM. This counts as sub-micromolar.

For `CC(C)(C)c1nc(N2CCN(CCCCn3cccc(C(F)(F)F)c3=O)CC2)cc(C(F)(F)F)n1`, the values for the Ki in series [1] and in series [2] were 0.409 µM and 0.0093 µM, respectively.

For `CC(C)(C)c1nc(N2CCN(CCCCNC(=O)CCc3ccccc3)CC2)cc(C(F)(F)F)n1`, the Ki in series [1] came to 0.244 µM; in series [2] it was 0.0016 µM. In series [3], this compound came in with a bioavailability below 10%.

The compound `CC(C)(C)c1nc(N2CCN(CCCCn3ccc(-c4ccccc4)cc3=O)CC2)cc(C(F)(F)F)n1` yielded a Ki in series [1] of 0.527 µM.

For `CCN(Cc1ccccc1)C(=O)NCCCCN1CCN(c2cc(C(F)(F)F)nc(C(C)(C)C)n2)CC1`, the Ki came to 0.212 µM in series [1] and 0.0083 µM in series [2].

Turning to `CC(C)(C)c1nc(N2CCN(CCCCNC(=O)NCCc3ccccc3)CC2)cc(C(F)(F)F)n1`, the inhibition constant (Ki) was 0.234 µM in series [1] and 0.0072 µM in series [2].

Take `COc1cccn(CCCCN2CCN(c3cc(C(F)(F)F)nc(C(C)(C)C)n3)CC2)c1=O`: in series [1], the affinity, expressed as Ki, was 0.168 µM.

Regarding `CC(C)(C)CNC(=O)NCCCCN1CCN(c2cc(C(F)(F)F)nc(C(C)(C)C)n2)CC1`, the values for the Ki in series [1] and in series [2] were 0.0913 µM and 0.0055 µM, respectively.

`Cc1ccn(CCCCN2CCN(c3cc(C(F)(F)F)nc(C(C)(C)C)n3)CC2)c(=O)c1` showed a Ki in series [1] of 0.0626 µM. The Stability in series [4] was above 97%; in series [6] it was 74%; in series [8], 59%. In addition, the Kp in series [5] is 3.7. In series [3], the bioavailability was 37%. For the same compound, the Papp in series [7] amounted to 5 ×10⁻⁶ cm/s.

Consider `CC(C)(C)c1nc(N2CCN(CCCCNC(=O)NCc3ccccc3)CC2)cc(C(F)(F)F)n1`, for which the inhibition constant (Ki) amounted to 0.137 µM in series [1] and 0.0027 µM in series [2].

Regarding `CC(C)(C)c1nc(N2CCN(CCCCCC(=O)NCc3ccccc3)CC2)cc(C(F)(F)F)n1`, the Ki was found to be 0.174 µM in series [1] and 0.0062 µM in series [2].
